Laboratory results as given in ChEMBL document CHEMBL2016532, “Novel potent dual inhibitors of CK2 and Pim kinases with antiproliferative activity against cancer cells” (Bioorg Med Chem Lett, 2012).

Key:
[1] = Antiproliferative activity against human SUM149PT cells after 48 hrs by alamar blue assay; type: functional, cell-based
[2] = tested on: BXPC-3; experiment: Antiproliferative activity against human BxPC3 cells after 48 hrs by alamar blue assay; type: functional, cell-based; conditions: BXPC-3, 48 h
[3] = tested on: MDA-MB-453 (Homo sapiens); experiment: Antiproliferative activity against human MDA-MB-453 cells after 48 hrs by alamar blue assay; conditions: MDA-MB-453, 48 h
[4] = tested on: K562; experiment: Antiproliferative activity against human K562 cells after 48 hrs by alamar blue assay; type: functional, cell-based; conditions: K562, 48 h
[5] = biological target: Casein kinase II alpha/beta (Homo sapiens, UniProt P68400); type: protein-complex assay
[6] = biological target: Serine/threonine-protein kinase pim-2 (Homo sapiens, UniProt Q9P1W9); experiment: Inhibition of human recombinant Pim2 using RSRHSSYPAGT as substrate and 5 uM ATP by radiometric assay
[7] = biological target: Serine/threonine-protein kinase pim-1 (Homo sapiens, UniProt P11309); experiment: Inhibition of human recombinant Pim1 using RSRHSSYPAGT as substrate and 30 uM ATP by radiometric assay
[8] = tested on: MV4-11; experiment: Antiproliferative activity against human MV411 cells after 48 hrs by alamar blue assay; type: functional, cell-based; conditions: MV4-11, 48 h
[9] = biological target: T1, Receptor-type tyrosine-protein kinase FLT3 (Homo sapiens, UniProt P36888); experiment: Inhibition of Flt3
T1 sequence (P36888 whole entry): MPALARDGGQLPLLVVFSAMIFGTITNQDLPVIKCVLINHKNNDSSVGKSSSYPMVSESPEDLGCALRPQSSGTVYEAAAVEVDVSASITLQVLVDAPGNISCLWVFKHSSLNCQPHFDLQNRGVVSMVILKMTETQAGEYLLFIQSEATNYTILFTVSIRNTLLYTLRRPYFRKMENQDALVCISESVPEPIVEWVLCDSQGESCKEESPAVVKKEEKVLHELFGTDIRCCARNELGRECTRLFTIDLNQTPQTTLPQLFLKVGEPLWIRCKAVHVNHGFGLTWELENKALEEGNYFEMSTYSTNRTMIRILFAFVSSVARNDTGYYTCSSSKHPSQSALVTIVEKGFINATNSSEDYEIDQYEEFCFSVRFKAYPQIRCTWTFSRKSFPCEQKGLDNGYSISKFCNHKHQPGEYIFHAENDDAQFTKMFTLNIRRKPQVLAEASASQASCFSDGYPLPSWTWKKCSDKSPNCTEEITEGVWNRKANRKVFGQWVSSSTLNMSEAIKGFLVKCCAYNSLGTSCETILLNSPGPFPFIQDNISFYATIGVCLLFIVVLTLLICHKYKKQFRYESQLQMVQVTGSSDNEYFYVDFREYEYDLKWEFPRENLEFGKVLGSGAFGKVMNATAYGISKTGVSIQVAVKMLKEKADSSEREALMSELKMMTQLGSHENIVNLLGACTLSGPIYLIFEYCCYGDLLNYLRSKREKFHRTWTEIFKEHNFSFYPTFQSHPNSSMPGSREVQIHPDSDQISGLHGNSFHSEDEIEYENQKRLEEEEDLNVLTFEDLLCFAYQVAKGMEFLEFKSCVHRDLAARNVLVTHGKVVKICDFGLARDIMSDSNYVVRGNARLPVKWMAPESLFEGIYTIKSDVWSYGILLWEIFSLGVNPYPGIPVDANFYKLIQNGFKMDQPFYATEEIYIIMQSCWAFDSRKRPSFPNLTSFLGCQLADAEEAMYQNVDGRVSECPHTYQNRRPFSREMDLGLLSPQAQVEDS

Sequence of Casein kinase II alpha/beta (P67870 whole entry): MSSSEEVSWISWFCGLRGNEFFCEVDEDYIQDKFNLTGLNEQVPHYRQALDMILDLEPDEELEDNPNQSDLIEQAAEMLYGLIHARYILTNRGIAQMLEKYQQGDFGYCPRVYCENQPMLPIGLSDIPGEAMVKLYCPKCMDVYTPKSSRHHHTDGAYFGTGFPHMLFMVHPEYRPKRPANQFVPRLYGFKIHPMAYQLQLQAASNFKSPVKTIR
Sequence of Casein kinase II alpha/beta (P68400 whole entry): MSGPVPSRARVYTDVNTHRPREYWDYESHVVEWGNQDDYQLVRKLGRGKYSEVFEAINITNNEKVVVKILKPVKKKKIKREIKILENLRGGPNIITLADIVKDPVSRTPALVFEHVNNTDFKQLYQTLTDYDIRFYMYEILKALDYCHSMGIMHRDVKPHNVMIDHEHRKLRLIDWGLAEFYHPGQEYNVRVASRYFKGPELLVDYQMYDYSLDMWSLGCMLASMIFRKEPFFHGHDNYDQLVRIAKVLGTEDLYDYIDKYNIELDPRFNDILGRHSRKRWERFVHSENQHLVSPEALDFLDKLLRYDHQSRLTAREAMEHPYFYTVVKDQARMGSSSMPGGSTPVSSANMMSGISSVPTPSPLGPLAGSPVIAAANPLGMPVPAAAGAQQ
Sequence of Serine/threonine-protein kinase pim-1 (P11309 whole entry): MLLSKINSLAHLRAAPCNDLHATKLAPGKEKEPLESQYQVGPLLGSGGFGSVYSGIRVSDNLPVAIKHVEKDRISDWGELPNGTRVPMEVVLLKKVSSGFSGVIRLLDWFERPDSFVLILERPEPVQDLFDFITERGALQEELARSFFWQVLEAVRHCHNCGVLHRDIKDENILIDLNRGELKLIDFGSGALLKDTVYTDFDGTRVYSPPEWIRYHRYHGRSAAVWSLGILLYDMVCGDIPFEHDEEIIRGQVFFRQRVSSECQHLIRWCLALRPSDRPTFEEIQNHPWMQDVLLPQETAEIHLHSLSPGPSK
Sequence of Serine/threonine-protein kinase pim-2 (Q9P1W9 whole entry): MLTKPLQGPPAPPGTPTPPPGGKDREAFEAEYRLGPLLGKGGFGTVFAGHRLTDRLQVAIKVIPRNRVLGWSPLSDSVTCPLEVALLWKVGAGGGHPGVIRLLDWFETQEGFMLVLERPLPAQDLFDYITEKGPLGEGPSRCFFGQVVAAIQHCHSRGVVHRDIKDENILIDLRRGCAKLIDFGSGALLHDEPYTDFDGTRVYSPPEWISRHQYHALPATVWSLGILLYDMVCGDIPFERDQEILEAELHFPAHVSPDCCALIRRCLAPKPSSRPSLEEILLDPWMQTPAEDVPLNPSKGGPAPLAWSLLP

| Compound | EC50 [1] [nM] | EC50 [2] [nM] | EC50 [3] [nM] | EC50 [4] [nM] | IC50 [5] [nM] | IC50 [6] [nM] | IC50 [7] [nM] | EC50 [8] [nM] | IC50 [9] [nM] |
| --- | --- | --- | --- | --- | --- | --- | --- | --- | --- |
| c1ccc(Nc2nc3c(-c4nnc[nH]4)cccc3c3sccc23)cc1 | 7000 | > 30000 | 7800 | 6100 | 10 | 15 | 4 | 2000 |  |
| Clc1ccccc1Nc1nc2c(-c3nnc[nH]3)cccc2c2sccc12 | 4400 | 11700 | 2600 | 3600 | 9 | 2 | 3 | 500 | > 10000 |
| Fc1ccccc1Nc1nc2c(-c3nnc[nH]3)cccc2c2sccc12 | 9500 | > 30000 | 7100 | 3600 | 4 | 2 | 2 | 600 |  |
| c1ccc(Nc2nc3c(-c4nnc[nH]4)cccc3c3cscc23)cc1 |  |  |  |  | 10 | 17 | 27 |  |  |
| Clc1ccccc1Nc1nc2c(-c3nnc[nH]3)cccc2c2cscc12 | 2600 | 4500 | 4900 | > 10000 | 20 | 8 | 7 | 600 | > 10000 |
| c1ccc(Nc2nc3c(-c4nnc[nH]4)cccc3c3ccsc23)cc1 |  |  |  |  | 30 | 14 | 16 |  |  |
| Clc1ccccc1Nc1nc2c(-c3nnc[nH]3)cccc2c2ccsc12 | 2600 | 16100 | 1300 | > 10000 | 21 | 6 | 4 | 3200 | > 10000 |
| Clc1ccccc1Nc1nc2c(-c3nnc[nH]3)cccc2c2scnc12 | 12600 | 2800 | 2000 | > 10000 | 39 | 9 | 8 | 4700 |  |
| c1ccc(Nc2nc3c(-c4nnc[nH]4)cccc3n3cccc23)cc1 |  |  |  |  | 101 | 30 | 14 |  |  |
| Clc1ccccc1Nc1nc2c(-c3nnc[nH]3)cccc2n2cccc12 |  |  |  |  | 89 | 41 | 12 |  | > 10000 |
| Fc1ccccc1Nc1nc2c(-c3nnc[nH]3)cccc2n2cccc12 | 22800 | > 30000 | 28400 | 8200 | 89 | 20 | 8 | 3700 |  |
| Fc1ccccc1Nc1nc2c(-c3nnc[nH]3)cccc2n2cncc12 | 5400 | 15000 | 3100 | 5400 | 35 | 43 | 38 | 100 |  |
| c1cc(-c2nnc[nH]2)c2nc(NC3CC3)c3ccsc3c2c1 |  |  |  |  | 62 | 25 | 15 |  |  |
| c1cc(-c2nnc[nH]2)c2nc(N3CCOCC3)c3ccsc3c2c1 |  |  |  |  | 128 | 10 | 35 |  |  |
| c1ccc(CNc2nc3c(-c4nnc[nH]4)cccc3c3sccc23)cc1 |  |  |  |  | 48 | 52 | 4 |  |  |
| c1cncc(Nc2nc3c(-c4nnc[nH]4)cccc3c3sccc23)c1 |  |  |  |  | 76 | 22 | 17 |  |  |
| c1cc(-c2nnc[nH]2)c2nc(Nc3ccncc3)c3ccsc3c2c1 |  |  |  |  | 216 | 68 | 91 |  |  |
| Clc1cccc(Nc2nc3c(-c4nnc[nH]4)cccc3c3sccc23)c1 |  |  |  |  | 15 | 6 | 6 |  |  |
| Clc1ccc(Nc2nc3c(-c4nnc[nH]4)cccc3c3sccc23)cc1 |  |  |  |  | 33 | 86 | 14 |  |  |
| Oc1ccc(Nc2nc3c(-c4nnc[nH]4)cccc3c3sccc23)c(Cl)c1 |  |  |  |  | 10 | 4 | 14 |  |  |

| Compound | EC50 [1] [nM] | EC50 [2] [nM] | EC50 [3] [nM] | EC50 [4] [nM] | IC50 [5] [nM] | IC50 [6] [nM] | IC50 [7] [nM] | EC50 [8] [nM] | IC50 [9] [nM] |
| --- | --- | --- | --- | --- | --- | --- | --- | --- | --- |
| Fc1ccc(Nc2nc3c(-c4nnc[nH]4)cccc3c3sccc23)c(Cl)c1 |  |  |  |  | 52 | 9 | 9 |  |  |
| COc1cccc(Nc2nc3c(-c4nnc[nH]4)cccc3c3sccc23)c1Cl |  |  |  |  | 17 | 21 | 5 |  |  |
| Fc1cc(F)cc(Nc2nc3c(-c4nnc[nH]4)cccc3c3sccc23)c1 |  |  |  |  | 151 | 24 | 9 |  |  |
| FC(F)(F)Oc1ccc(Nc2nc3c(-c4nnc[nH]4)cccc3c3sccc23)c(Cl)c1 |  |  |  |  | 75 | 76 | 64 |  |  |
| Fc1cccc(Nc2nc3c(-c4nnc[nH]4)cccc3c3sccc23)c1 | 8100 | 9100 | 2600 | > 10000 | 7 | 5 | 3 | 4600 |  |
| Fc1ccc(Nc2nc3c(-c4nnc[nH]4)cccc3c3sccc23)cc1 | > 30000 | > 30000 | 6600 | > 10000 | 7 | 7 | 4 | > 10000 |  |
| Fc1ccc(Nc2nc3c(-c4nnc[nH]4)cccc3c3sccc23)c(F)c1 | > 30000 | > 30000 | 4600 | 4800 | 11 | 2 | 2 | 1700 |  |
| Fc1ccc(Nc2nc3c(-c4nnc[nH]4)cccc3c3sccc23)cc1F |  |  |  |  | 77 | 15 | 9 |  |  |
| COc1ccccc1Nc1nc2c(-c3nnc[nH]3)cccc2c2sccc12 |  |  |  |  | 84 | 49 | 7 |  |  |
| COc1cccc(Nc2nc3c(-c4nnc[nH]4)cccc3c3sccc23)c1 |  |  |  |  | 11 | 28 | 11 |  |  |
| COc1ccc(Nc2nc3c(-c4nnc[nH]4)cccc3c3sccc23)cc1 | 8200 | 28000 | 7400 | 7200 | 5 | 6 | 4 | 6500 |  |
| CN(C)CCOc1ccc(Nc2nc3c(-c4nnc[nH]4)cccc3c3sccc23)cc1 |  |  |  |  | 136 | 34 | 16 |  |  |
| FC(F)(F)c1cccc(Nc2nc3c(-c4nnc[nH]4)cccc3c3sccc23)c1 |  |  |  |  | 24 | 52 | 16 |  |  |
| N#Cc1cccc(Nc2nc3c(-c4nnc[nH]4)cccc3c3sccc23)c1 |  |  |  |  | 126 | 12 | 10 |  |  |
| C#Cc1cccc(Nc2nc3c(-c4nnc[nH]4)cccc3c3sccc23)c1 | 9600 | 24600 | 9300 | 6700 | 2 | 5 | 6 | 5400 |  |
| NC(=O)c1ccc(Nc2nc3c(-c4nnc[nH]4)cccc3c3sccc23)cc1 |  |  |  |  | 139 | 17 | 17 |  |  |
| O=C(O)c1cccc2c1nc(Nc1ccccc1Cl)c1ccsc12 |  |  |  |  | 139 | 121 | 69 |  |  |
| NC(=O)c1cccc2c1nc(Nc1ccccc1Cl)c1ccsc12 |  |  |  |  | 22 | 12 | 5 |  |  |
| CNC(=O)c1cccc2c1nc(Nc1ccccc1Cl)c1ccsc12 |  |  |  |  | 48 | 28 | 5 |  | 5300 |
| Cc1cc2c(Nc3ccccc3F)nc3c(-c4nnc[nH]4)cccc3c2s1 |  |  |  |  | 26 | 6 | 15 |  |  |
